# Where two headings read alike, the source gives them in different places.
# Assays:
# hNSC = test: MMP assay in human neural stem cells (hNSC); assay type: cell-based; details: Homo sapiens, Neural stem cell, 1 h, read-out: hNSC IC50 (MMP)
# HepG2 cells [1] = test: ROS-Glo hydrogen peroxide (ROS) assay; assay type: cell-based, human
# HepG2 cells [2] = test: Intracellular ATP content (cell viability) assay; assay type: cell-based, human; details: for IC50: Homo sapiens, HepG2, 40 h
# [3] = system: p53 (p53-bla HCT-116 cells); test: p53 β-lactamase reporter gene assay; assay type: cell-based, human; details: 16 h incubation, mean±SD of three experiments
# [4] = system: Nrf2/ARE (ARE-bla HepG2 cells); test: ARE β-lactamase reporter gene assay; assay type: cell-based, human; details: Homo sapiens, HepG2; 16 h incubation; mean±SD of three experiments; read-out: ARE (HepG2) EC50
# [5] = system: isolated rat liver mitochondria; test: Oxygen consumption, Clark-type oxygen electrode; assay type: biochemical
# [6] = system: HeLa cells expressing YFP-Parkin; test: Parkin translocation assay; assay type: cell-based, human
# rat primary hepatocytes [7] = system: rat primary hepatocytes
# HepG2 cells [8] = details: cited from earlier work; for IC50: read-out: MMP assays IC50 (µM), qHTS-HepG2
# HepG2 cells [9] = test: cells; details: Homo sapiens; for Emax: HepG2, read-out: MMP assays efficacy (%) HepG2
# [10] = system: Caenorhabditis elegans strain PE255; test: In vivo C. elegans ATP status assay; details: for effect on ATP content (in words): 0.5–100μM; for minimal effective concentration: Caenorhabditis elegans, read-out: LEC LUM: lowest effect concentration for luminescence, a measure of nematode ATP content
# rat primary hepatocytes [11] = test: MMP assay in rat primary hepatocytes; details: Rattus norvegicus, Hepatocyte
# [12] = system: Caenorhabditis elegans (Bristol N2); test: C. elegans larval development and growth assay; details: for effect on larval growth (in words): 0.5–100μM
# [13] = HepG2, 1 h, read-out: HepG2 IC50 Galactose (MMP)
# [14] = HepG2, 1 h, read-out: HepG2 IC50 Glucose (MMP)
# [15] = 1 h, read-out: Rat hepatocytes IC50 (MMP)
compound,measurement,setting,value
O=C(Nc1ccc(Cl)cc1)Nc1ccc(Cl)c(Cl)c1 [Triclocarban],IC50,hNSC,0.43 µM
same,EC50,"HepG2 cells [1]; Homo sapiens, HepG2, 2 h, read-out: ROS (HepG2) EC50",31.8 µM
same,IC50,"HepG2 cells [2]; read-out: ATP (HepG2, galactose) IC50",15.8 µM
same,IC50,"HepG2 cells [2]; read-out: ATP (HepG2, glucose) IC50",19.1 µM
same,EC50,[3]; Homo sapiens,5.33 ± 2.02 µM
same,EC50,[4],6.68 µM
same,Potential Mechanism,[5],Uncoupler
same,effect on mitochondrial respiration (in words),[5],effects similar to those of FCCP
same,"I-ADP, % of control (O2 consumption rate)",[5]; 0.032 µM,107 (58.8) % of control
same,"I-sub, % of control (O2 consumption rate)",[5]; 0.032 µM,115 (15.1) % of control
same,"II-ADP, % of control (O2 consumption rate)",[5]; 0.032 µM,93 (82.1) % of control
same,"II-sub, % of control (O2 consumption rate)",[5]; 0.032 µM,93 (22.8) % of control
same,"I-ADP, % of control (O2 consumption rate)",[5]; 0.16 µM,96 (52.6) % of control
same,"I-sub, % of control (O2 consumption rate)",[5]; 0.16 µM,118 (15.5) % of control
same,"II-ADP, % of control (O2 consumption rate)",[5]; 0.16 µM,104 (91.7) % of control
same,"II-sub, % of control (O2 consumption rate)",[5]; 0.16 µM,114 (28.1) % of control
same,"I-ADP, % of control (O2 consumption rate)",[5]; 0.8 µM,103 (56.5) % of control
same,"I-sub, % of control (O2 consumption rate)",[5]; 0.8 µM,153 (20.1) % of control
same,"II-ADP, % of control (O2 consumption rate)",[5]; 0.8 µM,99 (87.1) % of control
same,"II-sub, % of control (O2 consumption rate)",[5]; 0.8 µM,128 (31.4) % of control
same,"I-ADP, % of control (O2 consumption rate)",[5]; 20 µM,143 (78.2) % of control
same,"I-sub, % of control (O2 consumption rate)",[5]; 20 µM,631 (82.6) % of control
same,"II-ADP, % of control (O2 consumption rate)",[5]; 20 µM,95 (84.1) % of control
same,"II-sub, % of control (O2 consumption rate)",[5]; 20 µM,290 (71.4) % of control
same,Parkin recruitment,[6],Active
same,MMP assays efficacy (%) Rat Hepatocytes,rat primary hepatocytes [7],-113±53%
same,Rat hepatocytes (efficacy) (MMP),rat primary hepatocytes [7],1.77±0.60 ( −73.7±3.11 ) %
same,MMP assays efficacy (%) qHTS-HepG2,HepG2 cells [8],-119±8%
same,IC50,HepG2 cells [8],0.14 ± 0.05 µM
same,IC50,HepG2 cells [9]; [13],1.36 µM
same,IC50,HepG2 cells [9]; [14],0.93 µM
same,IC50,"HepG2 cells [9]; HepG2, read-out: IC50 in HepG2 cells (MMP, tier-one retest)",0.17 µM
same,Emax,HepG2 cells [9],102%
same,LUM: mean difference in luminescence (ATP content) relative to plate controls,[10]; 0.05 µM,-0.00831
same,LUM: mean difference in luminescence (ATP content) relative to plate controls,[10]; 0.1 µM,0.1123
same,LUM: mean difference in luminescence (ATP content) relative to plate controls,[10]; 0.5 µM,0.4779
same,LUM: mean difference in luminescence (ATP content) relative to plate controls,[10]; 1 µM,2.3316
same,LUM: mean difference in luminescence (ATP content) relative to plate controls,[10]; 5 µM,2.049
same,LUM: mean difference in luminescence (ATP content) relative to plate controls,[10]; 10 µM,3.074
same,LUM: mean difference in luminescence (ATP content) relative to plate controls,[10]; 25 µM,3.397
same,LUM: mean difference in luminescence (ATP content) relative to plate controls,[10]; 50 µM,3.34
same,LUM: mean difference in luminescence (ATP content) relative to plate controls,[10]; 75 µM,3.2375
same,LUM: mean difference in luminescence (ATP content) relative to plate controls,[10]; 100 µM,2.494
same,effect on ATP content (in words),[10],inhibited
same,minimal effective concentration,[10],0.5 µM
same,IC50,"rat primary hepatocytes [11]; 1 h, read-out: IC50 in rat primary hepatocytes (MMP, tier-one retest)",0.17 µM
same,IC50,rat primary hepatocytes [11]; [15],1.77 µM
same,EXT: mean difference in nematode size relative to plate controls,[12]; 0.05 µM,0.05115
same,EXT: mean difference in nematode size relative to plate controls,[12]; 0.1 µM,-0.1287
same,EXT: mean difference in nematode size relative to plate controls,[12]; 0.5 µM,0.279
same,larval growth effect at 0.5μM,[12]; 0.5 µM,severe larval growth arrest
same,EXT: mean difference in nematode size relative to plate controls,[12]; 1 µM,1.127
same,EXT: mean difference in nematode size relative to plate controls,[12]; 5 µM,1.268
same,EXT: mean difference in nematode size relative to plate controls,[12]; 10 µM,1.264
same,EXT: mean difference in nematode size relative to plate controls,[12]; 25 µM,1.322
same,EXT: mean difference in nematode size relative to plate controls,[12]; 50 µM,1.038
same,EXT: mean difference in nematode size relative to plate controls,[12]; 75 µM,0.8579
same,EXT: mean difference in nematode size relative to plate controls,[12]; 100 µM,0.6913
same,effect on larval growth (in words),[12],inhibited
same,minimal effective concentration,"[12]; Caenorhabditis elegans, read-out: LEC EXT: lowest effect concentration for extinction, a measure of nematode size",0.5 µM
O=C(Nc1ccccc1)Nc1cnns1 [Thidiazuron],IC50,hNSC,8.39 µM
same,ROS (HepG2) EC50,HepG2 cells [1],Inactive
same,"ATP (HepG2, galactose) IC50",HepG2 cells [2],Inactive
same,"ATP (HepG2, glucose) IC50",HepG2 cells [2],Inactive
same,p53 (HCT-116) EC50,[3],Inactive
same,EC50,[4],27.3 ± 9.74 µM
same,Potential Mechanism,[5],Uncoupler
same,"I-ADP, % of control (O2 consumption rate)",[5]; 0.16 µM,93 (51.1) % of control
same,"I-sub, % of control (O2 consumption rate)",[5]; 0.16 µM,104 (13.6) % of control
same,"II-ADP, % of control (O2 consumption rate)",[5]; 0.16 µM,91 (80.1) % of control
same,"II-sub, % of control (O2 consumption rate)",[5]; 0.16 µM,100 (24.5) % of control
same,"I-ADP, % of control (O2 consumption rate)",[5]; 0.8 µM,74 (40.3) % of control
same,"I-sub, % of control (O2 consumption rate)",[5]; 0.8 µM,95 (12.4) % of control
same,"II-ADP, % of control (O2 consumption rate)",[5]; 0.8 µM,93 (82.2) % of control
same,"II-sub, % of control (O2 consumption rate)",[5]; 0.8 µM,106 (26.1) % of control
same,"I-ADP, % of control (O2 consumption rate)",[5]; 4 µM,87 (47.5) % of control
same,"I-sub, % of control (O2 consumption rate)",[5]; 4 µM,134 (17.5) % of control
same,"II-ADP, % of control (O2 consumption rate)",[5]; 4 µM,95 (83.6) % of control
same,"II-sub, % of control (O2 consumption rate)",[5]; 4 µM,119 (29.3) % of control
same,"I-ADP, % of control (O2 consumption rate)",[5]; 20 µM,99 (54.4) % of control
same,"I-sub, % of control (O2 consumption rate)",[5]; 20 µM,311 (40.8) % of control
same,"II-ADP, % of control (O2 consumption rate)",[5]; 20 µM,104 (92.1) % of control
same,"II-sub, % of control (O2 consumption rate)",[5]; 20 µM,269 (66.2) % of control
same,Parkin recruitment,[6],Inactive
same,MMP assays efficacy (%) Rat Hepatocytes,rat primary hepatocytes [7],-136±46%
same,Rat hepatocytes (efficacy) (MMP),rat primary hepatocytes [7],14.7±2.52 ( −98.5±15.2 ) %
same,MMP assays efficacy (%) qHTS-HepG2,HepG2 cells [8],-126±9%
same,IC50,HepG2 cells [8],3.43 ± 0.73 µM
same,IC50,HepG2 cells [9]; [13],14.6 µM
same,IC50,HepG2 cells [9]; [14],12 µM
same,IC50,"HepG2 cells [9]; HepG2, read-out: MMP assays IC50 (µM) HepG2",6.31 µM
same,Emax,HepG2 cells [9],104%
same,LUM: mean difference in luminescence (ATP content) relative to plate controls,[10]; 0.5 µM,0.0432
same,LUM: mean difference in luminescence (ATP content) relative to plate controls,[10]; 1 µM,0.1041
same,LUM: mean difference in luminescence (ATP content) relative to plate controls,[10]; 5 µM,0.03776
same,LUM: mean difference in luminescence (ATP content) relative to plate controls,[10]; 10 µM,0.1711
same,LUM: mean difference in luminescence (ATP content) relative to plate controls,[10]; 25 µM,0.3608
same,LUM: mean difference in luminescence (ATP content) relative to plate controls,[10]; 50 µM,0.588
same,LUM: mean difference in luminescence (ATP content) relative to plate controls,[10]; 75 µM,0.6504
same,LUM: mean difference in luminescence (ATP content) relative to plate controls,[10]; 100 µM,0.4761
same,effect on ATP content (in words),[10],statistically significant decreases in ATP content
same,minimal effective concentration,[10],50 µM
same,IC50,rat primary hepatocytes [11]; [15],14.7 µM
same,IC50,rat primary hepatocytes [11]; read-out: MMP assays IC50 (µM) Rat Hepatocytes,4.56 ± 2.78 µM
same,EXT: mean difference in nematode size relative to plate controls,[12]; 0.5 µM,0.1764
same,EXT: mean difference in nematode size relative to plate controls,[12]; 1 µM,0.07124
same,EXT: mean difference in nematode size relative to plate controls,[12]; 5 µM,0.08978
same,EXT: mean difference in nematode size relative to plate controls,[12]; 10 µM,0.07446
same,EXT: mean difference in nematode size relative to plate controls,[12]; 25 µM,0.09242
same,EXT: mean difference in nematode size relative to plate controls,[12]; 50 µM,0.2069
same,EXT: mean difference in nematode size relative to plate controls,[12]; 75 µM,0.07987
same,effect on larval growth (in words),[12],did not affect growth

# From publication PMC6112376, “Comprehensive Analyses and Prioritization of Tox21 10K Chemicals Affecting Mitochondrial Function by in-Depth Mechanistic Studies” (Environmental Health Perspectives, 2018)
